Laboratory results published in patent US20120142646A1, “Novel Compounds 621” (priority 2006, published 2012).

What was measured:
[1] = target: T1, recombinant human Dopamine Subtype D2s receptors (Homo sapiens, UniProt P14416); test: Dopamine D2 [3H]-spiperone binding; settings: inhibition of [3H]-spiperone binding (0.16 nM); read-out: D2 bind pIC50 (converted)
T1 construct: purchased Perkin Elmer
Experimental: (§1) Membranes containing recombinant human Dopamine Subtype D2s receptors were obtained from Perkin Elmer. These were diluted in Assay Buffer (50 mM HEPES, 1 mM EDTA, 120 mM NaCl, 0.1% gelatin, pH 7.4) to provide a final concentration of membranes that gave a clear window between maximum and minimum specific binding.
Assays were performed in U-bottomed 96-well polypropylene plates. 30 μL [^3H]-spiperone (0.16 nM final concentration) and 30 μL of test compound (10× final concentration) were added to each test well. For each assay plate 8 replicates were obtained for [^3H]-spiperone binding in the presence of 30 μL vehicle (10% (v/v) DMSO in Assay Buffer; defining maximum binding) or 30 μL Haloperidol (10 μM final concentration; defining non-specific binding (NSB)). Membranes were then added to achieve a final volume of 300 μL. […] Five washes with 250 μL wash buffer (50 mM HEPES, 1 mM EDTA, 120 mM NaCl, pH 7.4) were performed at 4° C. to remove unbound radioactivity. […] The plates were sealed (TopSeal A) and filter-bound radioactivity was measured with a scintillation counter (TopCount, Packard BioScience) using a 3-minute counting protocol.
(§2) Total specific binding (B0) was determined by subtracting the mean NSB from the mean maximum binding. […]

[2] = target: T2, recombinant human adrenergic beta 1 receptors (Homo sapiens, UniProt P08588); test: Adrenergic β1 [125I]-Iodocyanopindolol binding; settings: inhibition of [125I]-Iodocyanopindolol binding (0.036 nM); read-out: β1 bind p IC50 (converted)
T2 construct: purchased Euroscreen
T2 sequence (P08588 whole entry): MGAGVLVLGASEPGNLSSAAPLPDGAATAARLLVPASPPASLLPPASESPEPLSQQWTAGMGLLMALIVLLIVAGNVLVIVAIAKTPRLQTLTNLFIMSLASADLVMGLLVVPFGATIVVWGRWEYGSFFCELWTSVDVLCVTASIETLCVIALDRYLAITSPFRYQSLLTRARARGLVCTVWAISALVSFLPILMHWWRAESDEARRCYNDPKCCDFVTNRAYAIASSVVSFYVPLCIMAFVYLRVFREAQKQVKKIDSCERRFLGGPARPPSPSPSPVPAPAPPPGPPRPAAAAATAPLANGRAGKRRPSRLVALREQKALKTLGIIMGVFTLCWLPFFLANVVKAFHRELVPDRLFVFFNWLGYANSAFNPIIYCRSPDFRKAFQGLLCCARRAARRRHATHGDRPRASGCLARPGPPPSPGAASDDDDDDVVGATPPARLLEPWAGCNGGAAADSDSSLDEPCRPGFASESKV
Experimental: as §1, with “adrenergic beta 1” for “Dopamine Subtype D2s”, “Euroscreen.” for “Perkin Elmer.”
Assays were performed in U-bottomed 96-well polypropylene plates. 10 μL [^125I]-Iodocyanopindolol (0.036 nM final concentration) and 10 μL of test compound (10× final concentration) were added to each test well. For each assay plate 8 replicates were obtained for [^125I]-Iodocyanopindolol binding in the presence of 10 μL vehicle (10% (v/v) DMSO in Assay Buffer; defining maximum binding) or 10 μL Propranolol (10 μM final is concentration; defining non-specific binding (NSB)). Membranes were then added to achieve a final volume of 100 μL. […] Five washes with 250 μL wash buffer (50 mM HEPES, 1 mM EDTA, 120 mM NaCl, pH 7.4) were performed at 4° C. to remove unbound radioactivity. […] The plates were sealed (TopSeal A) and filter-bound radioactivity was measured with a scintillation counter (TopCount, Packard BioScience) using a 3-minute counting protocol.
as §2

Adrenergic β2 = target: T3, Adrenergic β2 (Homo sapiens, UniProt P07550); test: Adrenergic β2 mediated cAMP production in H292 cells (AlphaScreen cAMP detection); assay type: cell-based; parameters: key to β2 Int Act: fraction of formoterol maximum activity (formoterol = 1)
T3 construct: Adherent H292 cells were removed from tissue culture flasks; endogenous in cells; host or cells: H292 cells
T3 sequence (P07550 whole entry): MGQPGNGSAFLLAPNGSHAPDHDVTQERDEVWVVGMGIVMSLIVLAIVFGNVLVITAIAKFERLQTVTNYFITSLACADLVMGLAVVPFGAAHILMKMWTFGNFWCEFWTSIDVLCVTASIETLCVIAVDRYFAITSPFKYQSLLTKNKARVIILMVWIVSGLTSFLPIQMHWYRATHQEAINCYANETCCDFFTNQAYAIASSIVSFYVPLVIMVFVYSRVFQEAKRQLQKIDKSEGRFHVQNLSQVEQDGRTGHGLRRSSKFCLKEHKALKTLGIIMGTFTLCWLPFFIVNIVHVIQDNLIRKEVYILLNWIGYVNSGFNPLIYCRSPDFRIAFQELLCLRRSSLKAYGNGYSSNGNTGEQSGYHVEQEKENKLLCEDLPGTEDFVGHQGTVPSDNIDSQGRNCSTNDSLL
How it was run: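 H292 cells pre-treated 10 min with rolipram (300 μM final), then given agonist for 60 min at room temperature in HBSS/10 mM HEPES pH 7.4, 1.6% DMSO final. Lysate cAMP measured by AlphaScreen against a cAMP standard curve. Four-parameter fit gives pEC50; intrinsic activity relative to formoterol maximum.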

T1 sequence (P14416 1-414 isoform P14416-2): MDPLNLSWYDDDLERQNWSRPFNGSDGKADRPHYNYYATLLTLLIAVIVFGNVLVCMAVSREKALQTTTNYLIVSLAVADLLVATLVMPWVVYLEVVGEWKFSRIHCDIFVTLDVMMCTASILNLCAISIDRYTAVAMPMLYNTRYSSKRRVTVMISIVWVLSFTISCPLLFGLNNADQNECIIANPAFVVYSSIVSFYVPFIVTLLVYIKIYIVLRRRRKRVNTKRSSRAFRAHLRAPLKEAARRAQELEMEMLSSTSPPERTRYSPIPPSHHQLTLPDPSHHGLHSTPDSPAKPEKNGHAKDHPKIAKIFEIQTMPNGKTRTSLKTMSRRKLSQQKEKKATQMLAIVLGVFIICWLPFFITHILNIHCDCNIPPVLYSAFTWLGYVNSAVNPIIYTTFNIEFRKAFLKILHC

IC50 [1]: 50.1 nM
IC50 [2]: 2510 nM
EC50 (Adrenergic β2; H292 cells, cAMP production, 60 minutes at room temperature, 300 μM rolipram, read-out: β2 pEC50 (converted)): 3.98 nM
β2 Int Act (Adrenergic β2; Intrinsic Activity as a fraction relative to the maximum activity determined for formoterol): 0.92
Compound: CCCCC[C@@H](C)N(CCNCCc1ccc(O)c2c1OCC(=O)N2)C(=O)CCNCCc1ccccc1 [Example 60, (R)—N-(Heptan-2-yl)-N-(2-(2-(5-hydroxy-3-oxo-3,4-dihydro-2H-benzo[b][1,4]oxazin-8-yl)ethylamino)ethyl)-3-(phenethylamino)propanamide bis(trifluoroacetate)]
